Results as given in PubChem BioAssay (NCI).
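Cultured in 96-well plates, cells were exposed to test compound for 48 hours across five concentrations. GI50 = concentration required for 50% inhibition of growth. At the TGI there is no net growth.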

Key:
Test in all cases: growth of human tumour cells (NCI), 48 h
786-0 renal = system: 786-0 renal
ACHN renal = system: ACHN renal
CCRF-CEM leukemia = system: CCRF-CEM leukemia
IGROV1 ovarian = system: IGROV1 ovarian
MOLT-4 leukemia = system: MOLT-4 leukemia
OVCAR-8 ovarian = system: OVCAR-8 ovarian
SK-MEL-5 melanoma = system: SK-MEL-5 melanoma
OVCAR-4 ovarian = system: OVCAR-4 ovarian
PC-3 prostate = system: PC-3 prostate
SF-268 CNS = system: SF-268 CNS

Structure (SMILES)	TGI (786-0 renal) [µM]	TGI (ACHN renal) [µM]	TGI (CCRF-CEM leukemia) [µM]	TGI (IGROV1 ovarian) [µM]	TGI (MOLT-4 leukemia) [µM]	TGI (OVCAR-8 ovarian) [µM]	TGI (SK-MEL-5 melanoma) [µM]	GI50 (786-0 renal) [µM]	GI50 (ACHN renal) [µM]	GI50 (CCRF-CEM leukemia) [µM]	GI50 (IGROV1 ovarian) [µM]	GI50 (MOLT-4 leukemia) [µM]	GI50 (OVCAR-4 ovarian) [µM]	TGI (OVCAR-4 ovarian) [µM]	GI50 (OVCAR-8 ovarian) [µM]	GI50 (PC-3 prostate) [µM]	TGI (PC-3 prostate) [µM]	GI50 (SF-268 CNS) [µM]	TGI (SF-268 CNS) [µM]	GI50 (SK-MEL-5 melanoma) [µM]
O=C(Nc1cc(Cl)ccc1Cl)c1cc2cccc(Br)c2oc1=O	> 100	> 100	> 100	> 100	> 100	> 100	> 100	–	–	–	–	–	–	–	–	–	–	–	–	–
Cc1ccc2[nH]c3c(c2c1)N=c1ccccc1=NO3	> 100	> 100	> 100	> 100	> 100	43	> 100	35	32.3	> 100	32.6	> 100	27.9	> 100	17.5	57	> 100	23.1	55.8	40.9
O=C1C=CC(=O)C2C1Cc1ccccc1C2c1ccccc1 (stereo unspecified)	> 100	> 100	68.7	> 100	93.2	78	> 100	–	–	–	–	–	–	46	–	–	–	–	> 100	–
COc1cc(OC)cc(-c2nc3sccn3c2/C=N/N=C(N)N)c1	14.4	17.5	19.5	26.2	18.6	20.8	15.2	7.71	8.58	10.9	11.6	10.9	–	–	9.85	9.23	16.2	10.2	27.2	8.34
NCCOCn1cc(Cc2cccc(OCc3ccccc3)c2)c(=O)[nH]c1=O	> 100	–	> 100	> 100	> 100	> 100	> 100	–	–	–	–	–	–	> 100	–	–	–	–	–	–
COc1cc(O)c(C(=O)CC(C)=O)c(OC)c1	> 100	> 100	> 100	> 100	> 100	> 100	> 100	–	–	–	–	–	–	> 100	–	–	–	–	> 100	–
O=S(=O)(c1ccccc1)c1nccs1	> 100	> 100	–	> 100	> 100	> 100	> 100	–	–	–	–	–	–	> 100	–	–	–	–	> 100	–
Cc1cc(C)nc(NS(=O)(=O)c2ccc(Nc3c4ccccc4nc4c(C(=O)Nc5ccc(S(=O)(=O)Nc6cc(C)on6)cc5)ccc(Cl)c34)cc2)n1	34.1	> 100	71	–	49.1	> 100	–	–	–	–	–	–	–	65.3	–	–	–	–	> 100	–
CCOP(=O)(OCC)/C(C#N)=C\c1ccsc1	> 100	> 100	–	–	> 100	> 100	> 100	–	–	–	–	–	–	> 100	–	–	–	–	> 100	–
COC12C=C/C(=C(/C(=O)OCCSc3ccnn3C)C(=O)CCCCCCCCC3(OC)C=C/C(=C(/C(=O)OCCSc4ccnn4C)C(=O)CCCCCCCC1)O3)O2	4.12	> 32.5	> 32.5	> 32.5	–	6.79	1.09	1.07	1.07	1.09	1.46	–	0.837	2.5	1	1.51	> 32.5	1.15	> 32.5	0.581
Cc1c(-c2coc(-c3ccccc3)n2)c(=O)n(-c2ccccc2)n1C	> 100	> 100	> 100	> 100	86.9	> 100	61	–	–	–	–	–	–	> 100	–	–	–	–	> 100	–
Cc1c(NC(=O)CCl)c(=O)oc2c(C)c3occc(=O)c3cc12	32.4	80.5	41.8	31.2	17.9	43.2	23.6	–	–	–	–	–	–	25.6	–	–	–	–	25.9	–
COc1ccc2c3c(c(C(=O)O)oc13)CCC2	> 100	> 100	> 100	> 100	> 100	> 100	> 100	–	–	–	–	–	–	> 100	–	–	–	–	> 100	–
CCN(CC)CCCOc1ccc2ncnc(Nc3ccc(Oc4cccc(C(F)(F)F)c4)c(Cl)c3)c2c1	2.95	2.26	14.2	–	4.49	–	–	1.54	1.07	2.26	–	1.88	1.54	2.99	–	1.75	3.58	1.44	3.07	–
Cc1ccc(NC(=O)C(=O)C(C(=O)c2ccc3ccccc3c2)C2OC(=O)c3ccccc32)c(C)c1 (stereo unspecified)	19.7	60.4	78.1	39.9	23.7	36.8	24	–	–	–	–	–	–	25.6	–	–	–	–	35.7	–
CCCN(CCC)CCc1cc(C(C)=O)n(S(=O)(=O)c2ccc(C)cc2)c1	> 100	> 100	> 100	> 100	> 100	> 100	> 100	–	–	–	–	–	–	> 100	–	–	–	–	> 100	–
CCNc1cc2oc(=O)cc(C(F)(F)F)c2cc1C	> 100	> 100	–	> 100	> 100	> 100	> 100	–	–	–	–	–	–	> 100	–	–	> 100	–	> 100	–
Clc1ccccc1[C@@H]1C[C@@H]2Cc3cc(Br)c4ccccc4c3N1O2	> 100	> 100	> 100	> 100	> 100	> 100	15.2	5.2	5.62	4.87	10.4	6.94	–	–	5.45	5.85	> 100	5.02	> 100	2.81
CCO/C(CCn1[nH]c(=O)c(Cl)c(Cl)c1=O)=N\NC(=O)C(=O)NN	> 100	> 100	> 100	> 100	> 100	> 100	> 100	–	–	–	–	–	–	> 100	–	–	–	–	> 100	–
CC(N)Cc1ccc(Cl)cc1 (stereo unspecified)	> 100	> 100	> 100	> 100	> 100	> 100	> 100	–	–	–	–	–	–	> 100	–	–	–	–	> 100	–
O=C1CSC(c2ccc(-c3nc4ccccc4[nH]3)cc2)=N1	> 50	> 50	–	> 50	–	> 50	> 50	42.5	24.7	–	21.9	–	–	–	23	> 50	> 50	22.4	> 50	13

Structure (SMILES)	TGI (786-0 renal) [µM]	TGI (ACHN renal) [µM]	TGI (CCRF-CEM leukemia) [µM]	TGI (IGROV1 ovarian) [µM]	TGI (MOLT-4 leukemia) [µM]	TGI (OVCAR-8 ovarian) [µM]	TGI (SK-MEL-5 melanoma) [µM]	GI50 (786-0 renal) [µM]	GI50 (ACHN renal) [µM]	GI50 (CCRF-CEM leukemia) [µM]	GI50 (IGROV1 ovarian) [µM]	GI50 (MOLT-4 leukemia) [µM]	GI50 (OVCAR-4 ovarian) [µM]	TGI (OVCAR-4 ovarian) [µM]	GI50 (OVCAR-8 ovarian) [µM]	GI50 (PC-3 prostate) [µM]	TGI (PC-3 prostate) [µM]	GI50 (SF-268 CNS) [µM]	TGI (SF-268 CNS) [µM]	GI50 (SK-MEL-5 melanoma) [µM]
NC(=O)COc1c(Br)cc(Br)cc1Br	> 100	> 100	> 100	–	> 100	> 100	> 100	–	–	–	–	–	–	> 100	–	–	–	–	> 100	–
CN(C)CCNC(=O)c1cccc2nc3ccc4cccnc4c3nc12	10.9	3.27	13.1	–	0.763	7.42	1.33	–	–	–	–	–	–	3.21	–	–	–	–	3.13	–
Cc1cc(Br)cc(C)c1NC(=O)C(=O)C(C(=O)c1ccncc1)C1OC(=O)c2ccccc21 (stereo unspecified)	> 100	> 100	> 100	> 100	> 100	> 100	–	–	–	–	–	–	–	> 100	–	–	–	–	> 100	–
COc1cccc(OC(=O)c2ccc(C(F)(F)F)nc2Nc2c(C)cccc2Cl)c1	> 100	–	78.9	43.3	> 100	46.3	> 100	27.7	–	25.6	15.1	31.5	13.8	30.9	19.5	20	47.1	24.8	86.8	33.3
C=C1C2C[C@@H]3OC4CC5O[C@]6(CC5OC4C(C)C3OC(=O)CC3CC[C@@H]4OC5C7OC8C[C@](CCC9CC(=C)[C@H](CCC(C[C@H]1C)O2)O9)(OC7C4O3)O[C@@H]85)C[C@@H]1O[C@@]2(CC(C)[C@@H]3OC(CC(=O)CCO)C(O)C[C@@H]3O2)CC(C)[C@@H]1O6 (stereo partly specified)	1.09	1.71	1.8	1.37	2.19	0.0172	0.00259	–	–	–	–	–	–	< 0.001	–	–	–	–	1.61	–
C#CCN(N=O)C(=O)NCCCCC(NC(=O)OCc1ccccc1)C(=O)OCc1ccccc1 (stereo unspecified)	> 100	> 100	45.1	> 100	50.6	> 100	> 100	–	–	–	–	–	–	> 100	–	–	–	–	73.5	–
O=C(O)C(Br)C(Br)C(=O)O (stereo unspecified)	> 100	> 100	–	> 100	–	> 100	> 100	–	–	–	–	–	–	> 100	–	–	> 100	–	> 100	–
COC1=CC(=O)C(Br)=CC1=O	32.9	–	8.84	31.1	10.4	65.8	34.5	–	–	–	–	–	–	32.1	–	–	–	–	33.8	–
Cn1cnc([N+](=O)[O-])c1Sc1nnnn1C	32.1	30.5	25	49.1	33.7	33.2	31.6	–	–	–	–	–	–	30.8	–	–	–	–	50.2	–
O=C(N/C(=C\c1c(O)ccc2ccccc12)c1nc2ccccc2[nH]1)c1ccccc1	> 100	> 100	> 100	> 100	> 100	> 100	> 100	–	–	–	–	–	–	> 100	–	–	–	–	> 100	–
CC1(C)OC2CC3COC(=O)C3CC2O1 (stereo unspecified)	> 100	> 100	> 100	> 100	> 100	> 100	> 100	–	–	–	–	–	–	> 100	–	–	–	–	> 100	–
CCC[CH2][Sn]([CH2]CCC)([CH2]CCC)[O]C(=O)C(OC(C)=O)c1ccccc1 (stereo unspecified)	0.295	0.274	–	0.323	0.42	0.304	0.28	0.157	0.143	–	0.153	0.0539	0.103	0.221	0.167	–	–	0.138	0.368	0.147
CCN(CC)CCC(=O)OC1C(C)=CC(C)C(=O)CC(C(C)CC2CCC(O)C(OC)C2)OC(=O)C2CCCCN2C(=O)C(=O)[C@@]2(O)OC(CCC2C)CC(OC)\C(C)=C/C=C/C=C/C(C)CC(C)C(=O)C1OC (stereo partly specified)	22.4	22.2	13.8	14.7	–	22.5	17.2	–	–	–	–	–	–	2.27	–	–	22.4	–	20.5	–
COc1cccc2c1C(=O)c1c(O)c3c(c(O)c1C2=O)C[C@@](O)(C(C)=O)C[C@@H]3OC1CC([N+]([O-])(Cc2ccccc2)Cc2ccccc2)C(O)C(C)O1 (stereo partly specified)	2.86	2.73	–	4.82	–	14.9	2.71	–	–	–	–	–	–	4.17	–	–	–	–	–	–
Nc1ncnc2c1sc(=S)n2-c1ccccc1	> 100	> 100	> 100	> 100	> 100	> 100	> 100	–	–	–	–	–	–	> 100	–	–	–	–	> 100	–
O=C1NC(=O)C(=Cc2c3ccccc3cc3ccccc23)C(=O)N1	> 100	> 100	> 100	> 100	> 100	> 100	> 100	–	–	–	–	–	–	–	–	–	–	–	> 100	–
COc1cc2c(c(O)c1C)C(=O)CC(c1ccccc1)O2 (stereo unspecified)	> 100	> 100	> 10	> 100	> 100	> 100	37.2	–	–	–	–	–	–	> 10	–	–	–	–	> 100	–
S=c1nc(C(c2ccccc2)c2ccccc2)[nH][nH]1	> 100	> 100	> 100	> 100	> 100	> 100	> 100	–	–	–	–	–	–	–	–	–	–	–	> 100	–
CSC(=Nc1ccccc1Cl)NC(=O)c1ccc(Br)cc1	86.3	> 100	–	> 100	54.9	> 100	–	–	–	–	–	–	–	38.4	–	–	–	–	> 100	–
COC1=CC(=O)C2C(C1=O)[C@@H]1c3ccccc3OC(C)(C)[C@H]21 (stereo partly specified)	33.6	27.2	65.1	–	41.2	42.2	74	–	–	–	–	–	–	32.4	–	–	–	–	88.6	–
